# Data as given in ChEMBL document CHEMBL1828536, “The impact of fatty acids on the antibacterial properties of N-thiolated β-lactams” (2011).
# How the values were obtained:
# Format in all cases: functional
# Staphylococcus aureus [1] = experiment: Antimicrobial activity against methicillin-resistant Staphylococcus aureus using tryptone soy broth
# Staphylococcus aureus [2] = experiment: Antimicrobial activity against methicillin-resistant Staphylococcus aureus using tryptone soy broth in presence of oleic acid
# Staphylococcus aureus [3] = experiment: Antimicrobial activity against methicillin-resistant Staphylococcus aureus using tryptone soy broth in presence of tween-80
# Staphylococcus aureus [4] = experiment: Antimicrobial activity against methicillin-resistant Staphylococcus aureus using tryptone soy broth in presence of bovine serum albumin
Compound,MIC (Staphylococcus aureus [1]),MIC (Staphylococcus aureus [2]),MIC (Staphylococcus aureus [3]),MIC (Staphylococcus aureus [4])
CCC(C)SN1C(=O)[C@H](OC)[C@@H]1c1ccccc1Cl (some centres not stated),1000 µg/mL,2000 µg/mL,3000 µg/mL,
Oc1cc(Cl)ccc1Oc1ccc(Cl)cc1Cl [TRICLOSAN],20 µg/mL,2000 µg/mL,> 10000 µg/mL,20 µg/mL
